Tested on: PDC 899932-113-R3-J6 complex spheroid viability
Assay: Anticancer human tumor 899932-113-R3-J6-PDC patient-derived melanoma cell line growth inhibition [RAS]
Conditions: for IC50: curve of first compound; for viability, T/C: stronger effect = lower value; active = viability on the fitted dose curve at most 10% of control; inactive = the rest
Procedure, shortened: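 Multi-cell-type spheroids: tumor cells plus HUVEC endothelial cells and mesenchymal stem cells. RAS-pathway inhibitors were combined with targeted agents, each dosed in half-log steps down from clinical Cmax, or from 10 microM when Cmax was unknown.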

[1] = second compound 0.00316 µM, first compound 0.0316 µM
[2] = second compound 0.00316 µM, first compound 0.1 µM
[3] = second compound 0.00316 µM, first compound 0.316 µM
[4] = second compound 0.00316 µM, first compound 1 µM
[5] = second compound 0.01 µM, first compound 0.0316 µM
[6] = second compound 0.01 µM, first compound 0.1 µM
[7] = second compound 0.01 µM, first compound 0.316 µM
[8] = second compound 0.01 µM, first compound 1 µM
[9] = second compound 0.0316 µM, first compound 0.0316 µM
[10] = second compound 0.0316 µM, first compound 0.1 µM
[11] = second compound 0.0316 µM, first compound 0.316 µM
[12] = second compound 0.0316 µM, first compound 1 µM
[13] = second compound 0.1 µM, first compound 0.0316 µM
[14] = second compound 0.1 µM, first compound 0.1 µM
[15] = second compound 0.1 µM, first compound 0.316 µM
[16] = second compound 0.1 µM, first compound 1 µM
[17] = second compound 0.316 µM, first compound 0.0316 µM
[18] = second compound 0.316 µM, first compound 0.1 µM
[19] = second compound 0.316 µM, first compound 0.316 µM
[20] = second compound 0.316 µM, first compound 1 µM
[21] = second compound 1 µM, first compound 0.0316 µM
[22] = second compound 1 µM, first compound 0.1 µM
[23] = second compound 1 µM, first compound 0.316 µM
[24] = second compound 1 µM, first compound 1 µM
[25] = second compound 0.00316 µM, first compound 0.000949 µM
[26] = second compound 0.00316 µM, first compound 0.003 µM
[27] = second compound 0.00316 µM, first compound 0.00949 µM
[28] = second compound 0.00316 µM, first compound 0.03 µM
[29] = second compound 0.00316 µM, first compound 0.0949 µM
[30] = second compound 0.00316 µM, first compound 0.3 µM
[31] = second compound 0.01 µM, first compound 0.000949 µM
[32] = second compound 0.01 µM, first compound 0.003 µM
[33] = second compound 0.01 µM, first compound 0.00949 µM
[34] = second compound 0.01 µM, first compound 0.03 µM
[35] = second compound 0.01 µM, first compound 0.0949 µM
[36] = second compound 0.01 µM, first compound 0.3 µM
[37] = second compound 0.0316 µM, first compound 0.000949 µM
[38] = second compound 0.0316 µM, first compound 0.003 µM
[39] = second compound 0.0316 µM, first compound 0.00949 µM
[40] = second compound 0.0316 µM, first compound 0.03 µM
[41] = second compound 0.0316 µM, first compound 0.0949 µM
[42] = second compound 0.0316 µM, first compound 0.3 µM
[43] = second compound 0.1 µM, first compound 0.000949 µM
[44] = second compound 0.1 µM, first compound 0.003 µM
[45] = second compound 0.1 µM, first compound 0.00949 µM
[46] = second compound 0.1 µM, first compound 0.03 µM
[47] = second compound 0.1 µM, first compound 0.0949 µM
[48] = second compound 0.1 µM, first compound 0.3 µM
[49] = second compound 0.316 µM, first compound 0.000949 µM
[50] = second compound 0.316 µM, first compound 0.003 µM
[51] = second compound 0.316 µM, first compound 0.00949 µM
[52] = second compound 0.316 µM, first compound 0.03 µM
[53] = second compound 0.316 µM, first compound 0.0949 µM
[54] = second compound 0.316 µM, first compound 0.3 µM
[55] = second compound 1 µM, first compound 0.000949 µM
[56] = second compound 1 µM, first compound 0.003 µM
[57] = second compound 1 µM, first compound 0.00949 µM
[58] = second compound 1 µM, first compound 0.03 µM
[59] = second compound 1 µM, first compound 0.0949 µM
[60] = second compound 1 µM, first compound 0.3 µM
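Throughout, for viability, T/C: spheroids exposed to agents for seven days before readout; 100% = DMSO vehicle control wells.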

CC(=O)OC12COC1CC(O)C1(C)C(=O)C(O)C3=C(C)C(OC(=O)C(O)C(NC(=O)OC(C)(C)C)c4ccccc4)CC(O)(C(OC(=O)c4ccccc4)C21)C3(C)C (stereo not drawn) + C=CC(=O)N1CCN(c2nc(OCC3CCCN3C)nc3c(F)c(-c4nc(N)cc(C)c4C(F)(F)F)c(Cl)cc23)C(C)C1
< 31.6 nM: IC50 (second compound 0.00316 µM) | IC50 (second compound 0.01 µM) | IC50 (second compound 0.0316 µM) | IC50 (second compound 0.1 µM) | IC50 (second compound 0.316 µM) | IC50 (second compound 1 µM)
inactive: viability, T/C [1] 30.5% | viability, T/C [2] 30.6% | viability, T/C [3] 40% | viability, T/C [4] 46.4% | viability, T/C (second compound 0.00316 µM, first compound 3.16 µM) 69.7% | viability, T/C (second compound 0.00316 µM, first compound 10 µM) 82.1% | viability, T/C [5] 31.2% | viability, T/C [6] 36.1% | viability, T/C [7] 39.6% | viability, T/C [8] 57.3% | viability, T/C (second compound 0.01 µM, first compound 3.16 µM) 49.5% | viability, T/C (second compound 0.01 µM, first compound 10 µM) 76.6% | viability, T/C [9] 31% | viability, T/C [10] 43.6% | viability, T/C [11] 42.2% | viability, T/C [12] 48.4% | viability, T/C (second compound 0.0316 µM, first compound 3.16 µM) 68.3% | viability, T/C (second compound 0.0316 µM, first compound 10 µM) 60.8% | viability, T/C [13] 34.5% | viability, T/C [14] 37.2% | viability, T/C [15] 34.2% | viability, T/C [16] 50.4% | viability, T/C (second compound 0.1 µM, first compound 3.16 µM) 73.6% | viability, T/C (second compound 0.1 µM, first compound 10 µM) 74% | viability, T/C [17] 27.6% | viability, T/C [18] 34.3% | viability, T/C [19] 44.8% | viability, T/C [20] 47.1% | viability, T/C (second compound 0.316 µM, first compound 3.16 µM) 75.1% | viability, T/C (second compound 0.316 µM, first compound 10 µM) 79% | viability, T/C [21] 31.5% | viability, T/C [22] 37.1% | viability, T/C [23] 38.8% | viability, T/C [24] 51% | viability, T/C (second compound 1 µM, first compound 3.16 µM) 68.5% | viability, T/C (second compound 1 µM, first compound 10 µM) 69.2%

CC1(C)CCC(Nc2ncc(C(F)(F)F)c(-c3c[nH]c4c(P(C)(C)=O)c(C#N)ccc34)n2)CN1 (stereo not drawn) + C=CC(=O)N1CCN(c2nc(OCC3CCCN3C)nc3c(F)c(-c4nc(N)cc(C)c4C(F)(F)F)c(Cl)cc23)C(C)C1
9.74 nM: IC50 (second compound 0.01 µM)
inactive: viability, T/C [25] 105% | viability, T/C [26] 73% | viability, T/C [27] 51.5% | viability, T/C [28] 25.9% | viability, T/C [29] 16.4% | viability, T/C [31] 96.8% | viability, T/C [32] 79.2% | viability, T/C [33] 48% | viability, T/C [34] 30.5% | viability, T/C [35] 16.4% | viability, T/C [36] 11.2% | viability, T/C [37] 102% | viability, T/C [38] 75.3% | viability, T/C [39] 56.3% | viability, T/C [40] 29.9% | viability, T/C [41] 15.4% | viability, T/C [43] 94.8% | viability, T/C [44] 68% | viability, T/C [45] 51.4% | viability, T/C [46] 28.1% | viability, T/C [47] 16.4% | viability, T/C [49] 107% | viability, T/C [50] 73.9% | viability, T/C [51] 52.9% | viability, T/C [52] 30.4% | viability, T/C [53] 12.2% | viability, T/C [55] 95.1% | viability, T/C [56] 71.7% | viability, T/C [57] 47.4% | viability, T/C [58] 25.7% | viability, T/C [59] 10.5%
active: viability, T/C [30] 8.68% | viability, T/C [42] 8.82% | viability, T/C [48] 8.6% | viability, T/C [54] 9.67% | viability, T/C [60] 10.9%
8.03 nM: IC50 (second compound 1 µM)
8.56 nM: IC50 (second compound 0.1 µM)
8.77 nM: IC50 (second compound 0.00316 µM)
11 nM: IC50 (second compound 0.0316 µM)
9.45 nM: IC50 (second compound 0.316 µM)

CCc1c2c(nc3ccc(O)cc13)-c1cc3c(c(=O)n1C2)COC(=O)[C@]3(O)CC + C=CC(=O)N1CCN(c2nc(OCC3CCCN3C)nc3c(F)c(-c4nc(N)cc(C)c4C(F)(F)F)c(Cl)cc23)C(C)C1
19.6 nM: IC50 (second compound 0.00316 µM)
30.3 nM: IC50 (second compound 0.1 µM)
inactive: viability, T/C [25] 89.8% | viability, T/C [26] 65.9% | viability, T/C [27] 57.6% | viability, T/C [28] 48.6% | viability, T/C [29] 39.2% | viability, T/C [30] 36% | viability, T/C [31] 92.8% | viability, T/C [32] 67.4% | viability, T/C [33] 59.2% | viability, T/C [34] 50.2% | viability, T/C [35] 43% | viability, T/C [36] 36.4% | viability, T/C [37] 93.5% | viability, T/C [38] 78% | viability, T/C [39] 59.9% | viability, T/C [40] 51% | viability, T/C [41] 43.9% | viability, T/C [42] 30.3% | viability, T/C [43] 102% | viability, T/C [44] 69.5% | viability, T/C [45] 61.3% | viability, T/C [46] 55.7% | viability, T/C [47] 43.2% | viability, T/C [48] 38.4% | viability, T/C [49] 95.6% | viability, T/C [50] 71.7% | viability, T/C [51] 58.6% | viability, T/C [52] 54.1% | viability, T/C [53] 43% | viability, T/C [54] 34.4% | viability, T/C [55] 96.5% | viability, T/C [56] 75% | viability, T/C [57] 59.9% | viability, T/C [58] 51.7% | viability, T/C [59] 44.6% | viability, T/C [60] 34.3%
33.1 nM: IC50 (second compound 0.0316 µM)
24.3 nM: IC50 (second compound 0.01 µM)
31.8 nM: IC50 (second compound 1 µM)
29.4 nM: IC50 (second compound 0.316 µM)

Nc1ccn(C2OC(CO)C(O)C2(F)F)c(=O)n1 (stereo not drawn) + C=CC(=O)N1CCN(c2nc(OCC3CCCN3C)nc3c(F)c(-c4nc(N)cc(C)c4C(F)(F)F)c(Cl)cc23)C(C)C1
19.4 nM: IC50 (second compound 0.00316 µM)
17.4 nM: IC50 (second compound 1 µM)
21.2 nM: IC50 (second compound 0.0316 µM)
19.3 nM: IC50 (second compound 0.01 µM)
19.1 nM: IC50 (second compound 0.316 µM)
inactive: viability, T/C (second compound 0.00316 µM, first compound 0.00316 µM) 98.2% | viability, T/C (second compound 0.00316 µM, first compound 0.01 µM) 68.9% | viability, T/C [1] 37.3% | viability, T/C [2] 20.8% | viability, T/C [3] 23.6% | viability, T/C [4] 25.7% | viability, T/C (second compound 0.01 µM, first compound 0.00316 µM) 97.5% | viability, T/C (second compound 0.01 µM, first compound 0.01 µM) 73.5% | viability, T/C [5] 32.8% | viability, T/C [6] 20% | viability, T/C [7] 24.9% | viability, T/C [8] 22.6% | viability, T/C (second compound 0.0316 µM, first compound 0.00316 µM) 99.3% | viability, T/C (second compound 0.0316 µM, first compound 0.01 µM) 74.4% | viability, T/C [9] 38.5% | viability, T/C [10] 18.3% | viability, T/C [11] 20.9% | viability, T/C [12] 24% | viability, T/C (second compound 0.1 µM, first compound 0.00316 µM) 106% | viability, T/C (second compound 0.1 µM, first compound 0.01 µM) 86% | viability, T/C [13] 34% | viability, T/C [14] 23.8% | viability, T/C [15] 21.7% | viability, T/C [16] 23.2% | viability, T/C (second compound 0.316 µM, first compound 0.00316 µM) 98.9% | viability, T/C (second compound 0.316 µM, first compound 0.01 µM) 73% | viability, T/C [17] 32.4% | viability, T/C [18] 22.6% | viability, T/C [19] 24.1% | viability, T/C [20] 26.3% | viability, T/C (second compound 1 µM, first compound 0.00316 µM) 97.1% | viability, T/C (second compound 1 µM, first compound 0.01 µM) 64.2% | viability, T/C [21] 35.5% | viability, T/C [22] 21.9% | viability, T/C [23] 17.9% | viability, T/C [24] 24.3%
22.2 nM: IC50 (second compound 0.1 µM)

Reference: PubChem BioAssay AID2060895 (Molecular Pharmacology Branch, DTP, NCI, 2025)
